In the supplement of paper PMC10307832:

Experiments:
Test in all cases: relative viability (nuclei count vs DMSO), 5 days (fraction); higher = more cells survive
JZL-184 = compound: C1CN(CCC1C(C2=CC3=C(C=C2)OCO3)(C4=CC5=C(C=C4)OCO5)O)C(=O)OC6=CC=C(C=C6)[N+](=O)[O-] [JZL-184]
Procedure, shortened: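 Viability here means nuclei in treated wells divided by nuclei in vehicle wells, reported as the median across plates. Only plates with control CV below 25% and at least one doubling passed. Lung cancer cell lines in 1536-well plates were exposed to five √10-spaced library-drug doses for 5 days and counted from 4× Hoechst images in MetaXpress.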

JZL-184 + Bortezomib = compound: C1CN(CCC1C(C2=CC3=C(C=C2)OCO3)(C4=CC5=C(C=C4)OCO5)O)C(=O)OC6=CC=C(C=C6)[N+](=O)[O-] [JZL-184] + CC(C)C[C@H](NC(=O)[C@H](Cc1ccccc1)NC(=O)c1cnccn1)B(O)O [Bortezomib] (partner 0.002 µM)
Procedure, shortened: (§1)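 Relative viability equals treated-well nuclei counts divided by vehicle-well nuclei counts. Counts came from 4× images of lung cancer cell lines grown in 1536-well plates for 5 days after pin-tool dosing on the day after seeding. Dosing used one drug alone or a fixed anchor-drug dose plus five library-drug doses (not always all listed) in √10 steps, and values are medians of duplicate plates.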

JZL-184 + Navitoclax = compound: C1CN(CCC1C(C2=CC3=C(C=C2)OCO3)(C4=CC5=C(C=C4)OCO5)O)C(=O)OC6=CC=C(C=C6)[N+](=O)[O-] [JZL-184] + CC1(C)CCC(c2ccc(Cl)cc2)=C(CN2CCN(c3ccc(C(=O)NS(=O)(=O)c4ccc(N[C@H](CCN5CCOCC5)CSc5ccccc5)c(S(=O)(=O)C(F)(F)F)c4)cc3)CC2)C1 [Navitoclax] (partner 0.5 µM)
Procedure, shortened: as §1

JZL-184 + Foretinib = compound: C1CN(CCC1C(C2=CC3=C(C=C2)OCO3)(C4=CC5=C(C=C4)OCO5)O)C(=O)OC6=CC=C(C=C6)[N+](=O)[O-] [JZL-184] + COc1cc2c(Oc3ccc(NC(=O)C4(C(=O)Nc5ccc(F)cc5)CC4)cc3F)ccnc2cc1OCCCN1CCOCC1 [Foretinib] (partner 0.25 µM)
Procedure, shortened: as §1

JZL-184 + Lapatinib = compound: C1CN(CCC1C(C2=CC3=C(C=C2)OCO3)(C4=CC5=C(C=C4)OCO5)O)C(=O)OC6=CC=C(C=C6)[N+](=O)[O-] [JZL-184] + CS(=O)(=O)CCNCc1ccc(-c2ccc3ncnc(Nc4ccc(OCc5cccc(F)c5)c(Cl)c4)c3c2)o1 [Lapatinib] (partner 2 µM)
Procedure, shortened: as §1

JZL-184 + Pictilisib = compound: C1CN(CCC1C(C2=CC3=C(C=C2)OCO3)(C4=CC5=C(C=C4)OCO5)O)C(=O)OC6=CC=C(C=C6)[N+](=O)[O-] [JZL-184] + CS(=O)(=O)N1CCN(Cc2cc3nc(-c4cccc5[nH]ncc45)nc(N4CCOCC4)c3s2)CC1 [Pictilisib] (partner 1 µM)
Procedure, shortened: as §1

JZL-184 + Crizotinib = compound: C1CN(CCC1C(C2=CC3=C(C=C2)OCO3)(C4=CC5=C(C=C4)OCO5)O)C(=O)OC6=CC=C(C=C6)[N+](=O)[O-] [JZL-184] + C[C@@H](Oc1cc(-c2cnn(C3CCNCC3)c2)cnc1N)c1c(Cl)ccc(F)c1Cl [Crizotinib] (partner 1 µM)
Procedure, shortened: as §1

JZL-184 + Linsitinib = compound: C1CN(CCC1C(C2=CC3=C(C=C2)OCO3)(C4=CC5=C(C=C4)OCO5)O)C(=O)OC6=CC=C(C=C6)[N+](=O)[O-] [JZL-184] + C[C@]1(O)C[C@@H](c2nc(-c3ccc4ccc(-c5ccccc5)nc4c3)c3c(N)nccn32)C1 [Linsitinib] (partner 1 µM)
Procedure, shortened: as §1

JZL-184 + Alpelisib = compound: C1CN(CCC1C(C2=CC3=C(C=C2)OCO3)(C4=CC5=C(C=C4)OCO5)O)C(=O)OC6=CC=C(C=C6)[N+](=O)[O-] [JZL-184] + Cc1nc(NC(=O)N2CCC[C@H]2C(N)=O)sc1-c1ccnc(C(C)(C)C(F)(F)F)c1 [Alpelisib] (partner 2 µM)
Procedure, shortened: as §1

JZL-184 + Olaparib = compound: C1CN(CCC1C(C2=CC3=C(C=C2)OCO3)(C4=CC5=C(C=C4)OCO5)O)C(=O)OC6=CC=C(C=C6)[N+](=O)[O-] [JZL-184] + O=C(c1cc(Cc2n[nH]c(=O)c3ccccc23)ccc1F)N1CCN(C(=O)C2CC2)CC1 [Olaparib] (partner 8 µM)
Procedure, shortened: as §1

Row | Cell Line | relative viability (JZL-184; 0.04 µM) | relative viability (JZL-184; 0.4 µM) | relative viability (JZL-184; 1.265 µM) | relative viability (JZL-184; 4 µM) | relative viability (JZL-184 + Bortezomib; first compound 0.04 µM) | relative viability (JZL-184 + Bortezomib; first compound 0.4 µM) | relative viability (JZL-184 + Bortezomib; first compound 1.265 µM) | relative viability (JZL-184 + Bortezomib; first compound 4 µM) | relative viability (JZL-184 + Navitoclax; first compound 0.04 µM) | relative viability (JZL-184 + Navitoclax; first compound 0.4 µM) | relative viability (JZL-184 + Navitoclax; first compound 1.265 µM) | relative viability (JZL-184 + Navitoclax; first compound 4 µM) | relative viability (JZL-184 + Foretinib; first compound 0.04 µM) | relative viability (JZL-184 + Foretinib; first compound 0.4 µM) | relative viability (JZL-184 + Foretinib; first compound 1.265 µM) | relative viability (JZL-184 + Foretinib; first compound 4 µM) | relative viability (JZL-184 + Lapatinib; first compound 0.04 µM) | relative viability (JZL-184 + Lapatinib; first compound 0.4 µM) | relative viability (JZL-184 + Lapatinib; first compound 1.265 µM) | relative viability (JZL-184 + Lapatinib; first compound 4 µM) | relative viability (JZL-184 + Pictilisib; first compound 0.04 µM) | relative viability (JZL-184 + Pictilisib; first compound 0.4 µM) | relative viability (JZL-184 + Pictilisib; first compound 1.265 µM) | relative viability (JZL-184 + Pictilisib; first compound 4 µM) | relative viability (JZL-184 + Crizotinib; first compound 0.04 µM) | relative viability (JZL-184 + Crizotinib; first compound 0.4 µM) | relative viability (JZL-184 + Crizotinib; first compound 1.265 µM) | relative viability (JZL-184 + Crizotinib; first compound 4 µM) | relative viability (JZL-184 + Linsitinib; first compound 0.04 µM) | relative viability (JZL-184 + Linsitinib; first compound 0.4 µM) | relative viability (JZL-184 + Linsitinib; first compound 1.265 µM) | relative viability (JZL-184 + Linsitinib; first compound 4 µM) | relative viability (JZL-184 + Alpelisib; first compound 0.04 µM) | relative viability (JZL-184 + Alpelisib; first compound 0.4 µM) | relative viability (JZL-184 + Alpelisib; first compound 1.265 µM) | relative viability (JZL-184 + Alpelisib; first compound 4 µM) | relative viability (JZL-184 + Olaparib; first compound 0.04 µM) | relative viability (JZL-184 + Olaparib; first compound 0.4 µM) | relative viability (JZL-184 + Olaparib; first compound 1.265 µM) | relative viability (JZL-184 + Olaparib; first compound 4 µM)
1 | Calu-6 | 1.05 | 0.981 | 1.01 | 0.971 | 1.11 | 0.925 | 1 | 1.06 | 0.845 | 0.807 | 0.852 | 0.798 | 0.946 | 0.83 | 0.887 | 0.855 | 1.14 | 1.04 | 1.02 | 1.1 | 0.993 | 0.865 | 1 | 0.91 | 1.08 | 0.709 | 0.776 | 0.784 | 0.984 | 0.95 | 0.985 | 0.906 | 1.17 | 0.984 | 0.98 | 0.886 | 0.565 | 0.495 | 0.534 | 0.623
2 | EBC-1 | 1.06 | 0.992 | 0.995 | 1.03 | 0.595 | 0.514 | 0.558 | 0.455 | 0.442 | 0.427 | 0.45 | 0.342 | 0.101 | 0.0992 | 0.0837 | 0.106 | 0.176 | 0.239 | 0.204 | 0.209 | 0.347 | 0.287 | 0.506 | 0.364 | 0.21 | 0.189 | 0.195 | 0.193 | 0.971 | 0.848 | 0.929 | 0.832 | 0.982 | 0.795 | 0.802 | 0.754 | 0.655 | 0.744 | 0.671 | 0.666
